In ChEMBL document CHEMBL4507288 (2021):

Key:
[1] = biological target: GABA-A receptor; anion channel (Rattus norvegicus) (UniProt O09028+P15431+P18506+P18508+P19969+P20236+P23574+P23576+P28471+P28473+P30191+P62813+P63079+P63138+Q91ZM7+Q9ES14); settings: Compound concentration 10.0 uM
[2] = biological target: Alpha-2B adrenergic receptor (Homo sapiens, UniProt P18089); assay: GPCRScan assay: inhibition of Alpha2B; design: radioligand conc. used [nm] 1.5 – 2.0, parental cells HEKT
[3] = biological target: Sodium-dependent noradrenaline transporter (Homo sapiens, UniProt P23975); assay: GPCRScan assay: inhibition of NET; design: radioligand conc. used [nm] 1.3 – 5.0, parental cells stable HEK
[4] = biological target: Ribosomal protein S6 kinase alpha-5 (Homo sapiens) (UniProt O75582); settings: Compound concentration 1000.0 nM
[5] = biological target: Myosin light chain kinase family member 4 (Homo sapiens) (UniProt Q86YV6); settings: Compound concentration 1000.0 nM
[6] = biological target: cGMP-dependent protein kinase 2 (Homo sapiens) (UniProt Q13237); settings: Compound concentration 1000.0 nM
[7] = biological target: STE20/SPS1-related proline-alanine-rich protein kinase (Homo sapiens) (UniProt Q9UEW8); settings: Compound concentration 1000.0 nM
[8] = biological target: MAP kinase-interacting serine/threonine-protein kinase 2 (Homo sapiens) (UniProt Q9HBH9); settings: Compound concentration 1000.0 nM
[9] = biological target: Inhibitor of nuclear factor kappa-B kinase subunit epsilon (Homo sapiens) (UniProt Q14164); settings: Compound concentration 1000.0 nM
[10] = biological target: G protein-coupled receptor kinase 3 (Homo sapiens) (UniProt P35626); settings: Compound concentration 1000.0 nM
[11] = test system: Receptor-type tyrosine-protein kinase FLT3 (Homo sapiens), P36888 [K663Q]; settings: Compound concentration 1000.0 nM
[12] = biological target: Mitogen-activated protein kinase kinase kinase 2 (Homo sapiens) (UniProt Q9Y2U5); settings: Compound concentration 1000.0 nM
[13] = test system: Tyrosine-protein kinase ABL1 (Homo sapiens), P00519 [H396P]; settings: Compound concentration 1000.0 nM
[14] = biological target: Ribosomal protein S6 kinase alpha-4 (Homo sapiens) (UniProt O75676); settings: Compound concentration 1000.0 nM
Ribosomal protein S6 kinase alpha-4 (Homo sapiens), sequence (O75676 whole entry, looked up): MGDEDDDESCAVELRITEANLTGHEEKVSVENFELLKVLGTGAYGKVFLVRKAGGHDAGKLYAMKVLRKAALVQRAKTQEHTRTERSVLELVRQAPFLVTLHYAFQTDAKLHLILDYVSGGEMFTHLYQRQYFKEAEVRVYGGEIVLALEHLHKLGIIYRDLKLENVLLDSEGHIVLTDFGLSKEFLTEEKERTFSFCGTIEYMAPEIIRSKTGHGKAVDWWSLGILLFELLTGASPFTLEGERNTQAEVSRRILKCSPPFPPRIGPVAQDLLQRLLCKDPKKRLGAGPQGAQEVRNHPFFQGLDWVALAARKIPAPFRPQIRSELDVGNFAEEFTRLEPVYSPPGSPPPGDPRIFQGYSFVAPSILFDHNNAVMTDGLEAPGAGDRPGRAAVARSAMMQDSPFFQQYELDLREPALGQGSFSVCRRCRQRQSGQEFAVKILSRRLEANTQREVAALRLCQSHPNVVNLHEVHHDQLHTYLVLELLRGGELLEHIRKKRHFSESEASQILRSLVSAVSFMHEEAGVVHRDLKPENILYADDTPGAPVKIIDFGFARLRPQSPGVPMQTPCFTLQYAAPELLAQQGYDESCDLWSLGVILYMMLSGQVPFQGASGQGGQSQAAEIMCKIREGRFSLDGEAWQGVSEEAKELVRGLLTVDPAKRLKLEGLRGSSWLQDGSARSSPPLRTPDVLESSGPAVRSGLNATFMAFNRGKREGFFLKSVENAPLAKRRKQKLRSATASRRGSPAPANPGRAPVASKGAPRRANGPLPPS

[15] = biological target: Cyclin-dependent kinase 18 (Homo sapiens) (UniProt Q07002); settings: Compound concentration 1000.0 nM
[16] = biological target: Serine/threonine-protein kinase 36 (Homo sapiens) (UniProt Q9NRP7); settings: Compound concentration 1000.0 nM
[17] = biological target: Serine/threonine-protein kinase STK11 (Homo sapiens) (UniProt Q15831); settings: Compound concentration 1000.0 nM
[18] = test system: Serine/threonine-protein kinase B-raf (Homo sapiens), P15056 [V600E]; settings: Compound concentration 1000.0 nM
[19] = test system: Phosphatidylinositol 4,5-bisphosphate 3-kinase catalytic subunit alpha isoform (Homo sapiens), P42336 [H1047L]; settings: Compound concentration 1000.0 nM
[20] = biological target: Peripheral plasma membrane protein CASK (Homo sapiens) (UniProt O14936); settings: Compound concentration 1000.0 nM
[21] = biological target: cAMP-dependent protein kinase catalytic subunit PRKX (Homo sapiens) (UniProt P51817); settings: Compound concentration 1000.0 nM
[22] = biological target: Serine/threonine-protein kinase 35 (Homo sapiens) (UniProt Q8TDR2); settings: Compound concentration 1000.0 nM
[23] = biological target: Protein kinase C epsilon type (Homo sapiens) (UniProt Q02156); settings: Compound concentration 1000.0 nM
Protein kinase C epsilon type (Homo sapiens), sequence (Q02156 whole entry): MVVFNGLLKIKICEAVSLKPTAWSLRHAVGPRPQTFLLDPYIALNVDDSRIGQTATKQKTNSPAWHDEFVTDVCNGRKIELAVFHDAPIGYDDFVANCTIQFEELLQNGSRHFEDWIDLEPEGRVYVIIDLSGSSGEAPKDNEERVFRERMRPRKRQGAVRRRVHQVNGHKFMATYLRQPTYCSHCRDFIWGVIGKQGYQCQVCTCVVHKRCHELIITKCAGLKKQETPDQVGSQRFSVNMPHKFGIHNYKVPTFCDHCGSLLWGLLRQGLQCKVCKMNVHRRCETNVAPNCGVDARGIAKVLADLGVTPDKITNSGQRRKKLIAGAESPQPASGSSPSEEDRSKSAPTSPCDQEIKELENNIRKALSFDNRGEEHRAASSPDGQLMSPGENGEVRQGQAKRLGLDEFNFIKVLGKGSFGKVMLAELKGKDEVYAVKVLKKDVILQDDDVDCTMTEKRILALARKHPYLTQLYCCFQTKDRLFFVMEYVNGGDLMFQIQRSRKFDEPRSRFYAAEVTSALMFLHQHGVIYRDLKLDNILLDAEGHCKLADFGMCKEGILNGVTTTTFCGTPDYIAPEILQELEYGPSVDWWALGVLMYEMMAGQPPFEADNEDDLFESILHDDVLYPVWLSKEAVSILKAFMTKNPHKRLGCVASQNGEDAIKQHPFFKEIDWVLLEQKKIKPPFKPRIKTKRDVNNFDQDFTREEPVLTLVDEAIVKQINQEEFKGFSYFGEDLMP

[24] = biological target: Mitotic checkpoint serine/threonine-protein kinase BUB1 (Homo sapiens) (UniProt O43683); settings: Compound concentration 1000.0 nM
[25] = biological target: Serine/threonine-protein kinase PLK3 (Homo sapiens) (UniProt Q9H4B4); settings: Compound concentration 1000.0 nM
[26] = biological target: Cyclin-dependent kinase 4 (Homo sapiens) (UniProt P11802); settings: Compound concentration 1000.0 nM
[27] = biological target: Inhibitor of nuclear factor kappa-B kinase subunit beta (Homo sapiens) (UniProt O14920); settings: Compound concentration 1000.0 nM
Inhibitor of nuclear factor kappa-B kinase subunit beta (Homo sapiens), sequence (O14920 whole entry): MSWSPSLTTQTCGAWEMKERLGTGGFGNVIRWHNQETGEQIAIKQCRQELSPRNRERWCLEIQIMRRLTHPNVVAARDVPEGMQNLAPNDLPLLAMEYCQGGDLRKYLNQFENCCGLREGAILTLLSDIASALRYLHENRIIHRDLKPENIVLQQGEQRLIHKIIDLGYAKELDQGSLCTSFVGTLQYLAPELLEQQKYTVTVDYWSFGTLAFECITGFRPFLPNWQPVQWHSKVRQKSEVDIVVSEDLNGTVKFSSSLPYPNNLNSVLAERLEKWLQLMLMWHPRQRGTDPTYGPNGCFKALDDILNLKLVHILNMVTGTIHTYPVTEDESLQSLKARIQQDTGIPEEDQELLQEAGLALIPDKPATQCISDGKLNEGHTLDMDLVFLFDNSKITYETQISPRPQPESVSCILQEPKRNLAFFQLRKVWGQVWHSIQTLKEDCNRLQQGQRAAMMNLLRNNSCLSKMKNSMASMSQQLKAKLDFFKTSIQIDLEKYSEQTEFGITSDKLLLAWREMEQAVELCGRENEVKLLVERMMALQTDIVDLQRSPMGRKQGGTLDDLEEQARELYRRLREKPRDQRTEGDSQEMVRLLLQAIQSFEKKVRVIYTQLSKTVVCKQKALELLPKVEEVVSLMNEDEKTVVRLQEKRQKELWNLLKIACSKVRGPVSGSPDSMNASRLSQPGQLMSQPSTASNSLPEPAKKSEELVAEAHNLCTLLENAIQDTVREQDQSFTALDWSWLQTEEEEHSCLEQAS

[28] = biological target: Serine/threonine-protein kinase PAK 4 (Homo sapiens) (UniProt O96013); settings: Compound concentration 1000.0 nM
[29] = biological target: Death-associated protein kinase 1 (Homo sapiens) (UniProt P53355); settings: Compound concentration 1000.0 nM
Death-associated protein kinase 1 (Homo sapiens), sequence (P53355 whole entry, looked up): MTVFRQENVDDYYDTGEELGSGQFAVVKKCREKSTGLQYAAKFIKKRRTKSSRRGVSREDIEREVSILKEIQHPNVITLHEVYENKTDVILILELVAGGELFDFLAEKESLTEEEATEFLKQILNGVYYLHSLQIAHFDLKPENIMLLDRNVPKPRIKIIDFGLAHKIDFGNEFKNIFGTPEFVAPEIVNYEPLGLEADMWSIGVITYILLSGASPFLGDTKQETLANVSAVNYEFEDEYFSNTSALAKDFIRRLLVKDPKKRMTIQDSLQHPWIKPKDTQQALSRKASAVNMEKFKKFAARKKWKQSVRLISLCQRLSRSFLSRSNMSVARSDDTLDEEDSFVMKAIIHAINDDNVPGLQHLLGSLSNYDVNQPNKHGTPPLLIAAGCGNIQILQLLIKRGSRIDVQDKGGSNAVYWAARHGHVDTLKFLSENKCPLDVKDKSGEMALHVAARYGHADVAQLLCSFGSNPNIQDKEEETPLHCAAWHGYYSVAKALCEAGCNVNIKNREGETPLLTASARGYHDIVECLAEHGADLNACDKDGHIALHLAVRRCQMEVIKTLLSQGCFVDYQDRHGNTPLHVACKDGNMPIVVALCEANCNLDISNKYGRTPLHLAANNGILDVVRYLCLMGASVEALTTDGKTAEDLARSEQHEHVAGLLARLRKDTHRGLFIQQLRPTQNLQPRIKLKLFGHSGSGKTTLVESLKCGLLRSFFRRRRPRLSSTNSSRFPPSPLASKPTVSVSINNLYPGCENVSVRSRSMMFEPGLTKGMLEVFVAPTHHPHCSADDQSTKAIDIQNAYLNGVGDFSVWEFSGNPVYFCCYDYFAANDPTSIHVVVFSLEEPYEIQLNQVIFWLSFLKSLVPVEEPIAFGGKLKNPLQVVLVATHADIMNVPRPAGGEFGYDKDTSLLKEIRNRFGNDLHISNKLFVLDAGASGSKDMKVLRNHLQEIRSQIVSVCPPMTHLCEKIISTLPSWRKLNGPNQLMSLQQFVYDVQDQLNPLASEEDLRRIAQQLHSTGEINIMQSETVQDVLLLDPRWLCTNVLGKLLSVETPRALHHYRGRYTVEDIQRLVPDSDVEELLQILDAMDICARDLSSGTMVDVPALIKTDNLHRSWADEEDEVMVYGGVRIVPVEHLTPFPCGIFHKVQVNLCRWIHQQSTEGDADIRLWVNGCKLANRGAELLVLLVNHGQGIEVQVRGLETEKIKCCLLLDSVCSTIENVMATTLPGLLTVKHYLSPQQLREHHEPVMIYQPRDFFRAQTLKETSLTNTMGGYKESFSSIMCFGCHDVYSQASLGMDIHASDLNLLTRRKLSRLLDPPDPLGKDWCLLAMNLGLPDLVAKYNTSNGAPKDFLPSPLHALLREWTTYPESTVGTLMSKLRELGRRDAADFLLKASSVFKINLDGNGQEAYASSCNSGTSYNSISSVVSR

[30] = biological target: Maternal embryonic leucine zipper kinase (Homo sapiens) (UniProt Q14680); settings: Compound concentration 1000.0 nM
[31] = biological target: Cytoplasmic tyrosine-protein kinase BMX (Homo sapiens) (UniProt P51813); settings: Compound concentration 1000.0 nM
[32] = biological target: Activin receptor type-1 (Homo sapiens) (UniProt Q04771); settings: Compound concentration 1000.0 nM
[33] = biological target: Tyrosine-protein kinase HCK (Homo sapiens) (UniProt P08631); settings: Compound concentration 1000.0 nM
[34] = test system: Epidermal growth factor receptor (Homo sapiens), P00533 [UNDEFINED MUTATION]; settings: Compound concentration 1000.0 nM
Epidermal growth factor receptor (Homo sapiens), P00533 [UNDEFINED MUTATION], sequence (P00533 whole entry, looked up, change not shown): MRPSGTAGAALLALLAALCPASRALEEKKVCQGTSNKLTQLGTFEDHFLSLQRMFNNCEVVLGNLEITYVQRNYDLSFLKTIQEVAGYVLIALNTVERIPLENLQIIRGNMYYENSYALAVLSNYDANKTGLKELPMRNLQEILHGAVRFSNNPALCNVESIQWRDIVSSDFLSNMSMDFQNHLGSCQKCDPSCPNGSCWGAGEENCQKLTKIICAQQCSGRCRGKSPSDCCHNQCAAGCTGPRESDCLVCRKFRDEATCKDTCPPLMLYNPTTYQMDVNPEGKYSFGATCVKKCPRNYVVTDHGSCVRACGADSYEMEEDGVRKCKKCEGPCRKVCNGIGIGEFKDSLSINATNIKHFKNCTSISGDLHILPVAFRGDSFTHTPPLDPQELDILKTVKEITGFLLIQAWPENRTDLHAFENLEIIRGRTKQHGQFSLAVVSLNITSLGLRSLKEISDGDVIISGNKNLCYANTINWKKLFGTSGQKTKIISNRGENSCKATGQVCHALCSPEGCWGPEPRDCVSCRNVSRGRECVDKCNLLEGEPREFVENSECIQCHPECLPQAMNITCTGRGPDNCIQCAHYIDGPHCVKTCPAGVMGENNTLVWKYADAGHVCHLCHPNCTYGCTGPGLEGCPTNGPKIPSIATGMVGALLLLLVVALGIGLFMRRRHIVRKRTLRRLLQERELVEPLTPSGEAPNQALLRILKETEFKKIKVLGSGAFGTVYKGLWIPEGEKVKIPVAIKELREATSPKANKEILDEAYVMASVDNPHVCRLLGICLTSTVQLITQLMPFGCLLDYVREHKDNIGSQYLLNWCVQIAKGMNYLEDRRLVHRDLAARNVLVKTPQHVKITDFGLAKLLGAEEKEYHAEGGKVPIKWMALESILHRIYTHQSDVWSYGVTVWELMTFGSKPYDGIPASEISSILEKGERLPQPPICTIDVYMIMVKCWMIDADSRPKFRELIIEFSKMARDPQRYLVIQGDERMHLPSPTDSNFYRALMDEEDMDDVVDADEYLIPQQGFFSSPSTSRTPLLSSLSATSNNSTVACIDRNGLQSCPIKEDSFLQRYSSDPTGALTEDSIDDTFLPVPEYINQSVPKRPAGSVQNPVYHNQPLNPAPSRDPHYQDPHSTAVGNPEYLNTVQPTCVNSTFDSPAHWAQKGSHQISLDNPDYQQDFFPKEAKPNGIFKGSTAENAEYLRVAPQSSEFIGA

[35] = biological target: Serine/threonine-protein kinase PLK2 (Homo sapiens) (UniProt Q9NYY3); settings: Compound concentration 1000.0 nM
[36] = biological target: LIM domain kinase 1 (Homo sapiens) (UniProt P53667); settings: Compound concentration 1000.0 nM
[37] = biological target: Phosphatidylinositol 4,5-bisphosphate 3-kinase catalytic subunit gamma isoform (Homo sapiens) (UniProt P48736); settings: Compound concentration 1000.0 nM
[38] = test system: Epidermal growth factor receptor (Homo sapiens), P00533 [UNDEFINED MUTATION]; settings: Compound concentration 1000.0 nM; remark: listed apart in the source
[39] = biological target: Mitogen-activated protein kinase 4 (Homo sapiens) (UniProt P31152); settings: Compound concentration 1000.0 nM
[40] = biological target: MAP/microtubule affinity-regulating kinase 4 (Homo sapiens) (UniProt Q96L34); settings: Compound concentration 1000.0 nM
[41] = biological target: Mitogen-activated protein kinase 11 (Homo sapiens) (UniProt Q15759); settings: Compound concentration 1000.0 nM
[42] = biological target: Tyrosine-protein kinase JAK1 (Homo sapiens) (UniProt P23458); settings: Compound concentration 1000.0 nM
[43] = biological target: Serine/threonine-protein kinase WNK2 (Homo sapiens) (UniProt Q9Y3S1); settings: Compound concentration 1000.0 nM

CC(C)(C)OC(=O)N1CCCC1CNC1CCC(c2cc(F)ccc2F)(S(=O)(=O)c2ccc(Cl)cc2)CC1 (stereo not drawn) [GSI-NC]
879 nM: Ki [2]
inactive: inhibition [1] 11%
2430 nM: Ki [3]

O=S(=O)(NC1CCC(c2cc(F)ccc2F)(S(=O)(=O)c2ccc(Cl)cc2)CC1)C(F)(F)F (stereo not drawn) [MRK-560]
active: residual activity [9] 0% | residual activity [19] 41%
inactive: residual activity [4] 71% | residual activity [5] 100% | residual activity [6] 100% | residual activity [7] 100% | residual activity [8] 57% | residual activity [10] 92% | residual activity [11] 97% | residual activity [12] 98% | residual activity [13] 100% | residual activity [14] 100% | residual activity [15] 100% | residual activity [16] 100% | residual activity [17] 100% | residual activity [18] 86% | residual activity [20] 68% | residual activity [21] 100% | residual activity [22] 100% | residual activity [23] 52% | residual activity [24] 100% | residual activity [25] 97% | residual activity [26] 81% | residual activity [27] 93% | residual activity [28] 100% | residual activity [29] 95% | residual activity [30] 69% | residual activity [31] 93% | residual activity [32] 92% | residual activity [33] 85% | residual activity [34] 80% | residual activity [35] 100% | residual activity [36] 86% | residual activity [37] 100% | residual activity [38] 92% | residual activity [39] 95% | residual activity [40] 100% | residual activity [41] 94% | residual activity [42] 100% | residual activity [43] 77%
